Laboratory results as given in patent publication US20120070451A1, “METHODS AND COMPOSITIONS FOR MODULATING CARDIAC CONTRACTILITY” (Consiglio Nazionale Delle Ricerche, priority 2009, published 2012).

Columns and labels:
Cavα1 currents = test: Whole-cell patch clamp Ca2+ current (ICa,L) in cotransfected tsA-201 cells with or without serum; type: cell-based; details: cotransfection with Cavα1; 36 h
Experimental: FIG. 6. Akt phosphorylation of Cavβ2 preserves Cavα1 currents. Ca^2+ currents recorded in cotransfected tsA-201 cells with YFP-Cavα1 and either Cavβ2-WT, Cavβ2-SE, or Cavβ2-SA mutant, cultivated for 36 h in the presence or absence of fetal bovine serum (10%). Currents were recorded 1-2 minutes after the whole-cell configuration was achieved (i.e. after stabilization of the current) and were elicited by a 0 mV depolarization of 200 ms duration applied from a holding potential of −80 mV. Currents are normalized to cell capacitance (Current density, pA/pF). Representative current traces are shown. n>35 at each condition, (*P<0.05 compared to YFP-Cavα1, ANOVA).
FIG. 7. […] (C) Wild-type Cavα1 subunit (alone or cotransfected with Cavβ2SE) and its in-frame ΔPEST mutants (Cavα1-ΔP and Cavα1-ΔH) half-lives were determined in COST cells. After overnight starvation, transfected cells were pulse-chased and analyzed along a time course (*P<0.001 compared to Cavα1, ANOVA; n=3). […] (F) Ca^2+ currents recorded in tsA-201 cells cotransfected with Cavβ2-WT and either Cavα1-WT or Cavα1-ΔH and cultivated for 36 h in the presence or absence of fetal bovine serum (10%). […]
Macroscopic Ice, was recorded at room temperature (˜22° C.) using the whole-cell patch clamp technique in native cells as previously described (Aimond et al., 2005; Maier et al., 2003). […]

Cavα1 = test: Western blot of Cavα1 protein level in 293T cells co-transfected with Cavα1 and Cavβ2 variants; type: cell-based
Experimental: FIG. 5. Akt phosphorylation of Cavβ2 protects Cavα1 from protein degradation. (A-C) YFP-Cavα1 co-transfected 293T cells with the indicated mutant variant of Cavβ2. Cells were serum-starved overnight and treated with (A) […] or (B-C) 5 μM Akt inhibitor as indicated. The expression of YFP-Cavα1 in lysates was monitored by Western blot analysis with anti-YFP antibody, and normalized based on transfection efficiency (Cav(32) and protein amount (Tubulin) (n=3). (D) Cavα1 and Cavβ2 co-transfected 293T cells were treated with siAkt expressing vector as indicated. 3 days post transfection, cell lysate was tested by Western blot analysis. Protein loading was normalized to GAPDH levels. Representative experiments are shown (n=3).
FIG. 12. Cavβ2 interacts with Akt isoforms and Akt affects Cavα1 protein stability. (A) Immunoprecipitated Akt isoforms from WT cardiac extracts from mice treated or not with insulin (1 mU/g) assayed for Cavβ2. Input protein in each co-immunoprecipitation is shown. (B) Cavα1, Cavα1-ΔP, or Cavα1-ΔH co-transfected 293T cells with either Cavβ2 or Cavβ2-SE were infected with indicated active (AdAkt) or dominant negative (AdAktDN) Akt expressing adenoviral vectors. Cells were serum-starved overnight as indicated. The expression of Cavα1 and phosphorylation of GSK in lysates was monitored by Western blot analysis. (C) Cavα1, Cavα1-ΔP, or Cavα1 co-transfected 293T cells with either Cavβ2 or Cavβ2-SE were treated with siAkt expressing vector as indicated. 3 days post transfection, cells were lysated for protein extraction. Protein loading was normalized to GAPDH levels. Representative experiments are shown (n=3).
To directly assess whether Akt phosphorylation of Cavβ2 protects Cavα1 from protein degradation, we constructed a mutant of Cavβ2 in which the Serine 625, contained in the putative Akt—consensus site (R—X—X—R—S/T), was replaced by Glutamate (Cavβ2-SE) to mimic phosphorylation. […]
Proteins expression was evaluated in total lysates or cell fractions by Western blot analysis according to standard procedures. […]

Cavβ2 = Cavβ2 phosphorylation in hearts of insulin-treated mice (PAS antibody); type: in vivo, mouse; details: 1 mU/g insulin, 20 min post treatment
Experimental: FIG. 4. Akt interacts with and phosphorylates Cavβ2. (A) Coimmunoprecipitation assay of Akt and Cavβ2. Ventricular homogenates from WT and HA-E40K-Akt transgenic mice (Tg Akt) immunoprecipitated with antibodies against HA and immunoblotted for Cavβ2 as well as HA as a control. (B) Examination of Cavβ2 phosphorylation by Akt. In vitro kinase assays were performed with immunoprecipitated Cavβ2 incubated with recombinant active Akt and ^32P labeled ATP (left) or immunoprecipitated Cavβ2 from WT and KO cardiac extracts from mice treated or not with insulin (1 mU/g) using PAS (Phospho-Akt Substrate) antibody (right). (C) Back-phosphorylation assay of Cavβ2 from WT and KO hearts. Immunoprecipitated Cavβ2 from solubilized membranes was in vitro back-phosphorylated using recombinant active Akt and [γ^32]ATP. Precipitate amounts were assayed for ^32PCavβ2 and total Cavβ2. Representative experiments are shown (n=4).
To determine whether Cavβ2 can be phosphorylated by Akt, Cavβ2-immunoprecipitates from cardiac homogenates were incubated with recombinant active Akt and [γ-^32]ATP. A band corresponding to phosphorylated Cavβ2 was detected only in the presence of the kinase (FIG. 4B, left panel). To determine whether the Cavβ2 subunit was phosphorylated by Akt in vivo, we treated overnight-starved mice with 1 mU/g insulin to induce activation of Akt (Bayascas et al., 2008). […]

| Substance | ICa,L in serum-free medium compared to serum-containing medium (Cavα1 currents) | Cavα1 protein level under Akt inhibitor (Cavα1; 5 μM Akt inhibitor) | Cavα1 protein levels compared to cotransfection with Cavβ2-WT (Cavα1; 293T cells cotransfected with Cavα1) | Cavα1 expression on insulin treatment (Cavα1; Cavβ2-WT cotransfected cells) | Phosphorylation of Cavβ2 in heart (Cavβ2) |
| --- | --- | --- | --- | --- | --- |
| Cavβ2-SE: mutant of Cavβ2 in which Serine 625 in the Akt consensus site was replaced by Glutamate to mimic phosphorylation | completely counteracted this reduction | counteracted the downregulation of Cavα1 | increased |  |  |
| insulin [reference compound] |  |  |  | increased | insulin-stimulated phosphorylation of Cavβ2 in WT but not in KO hearts |
